According to US20100145901A1, “MATRIX MARKER MODEL AND METHODS FOR ASSESSING AND TREATING ARTHRITIS AND RELATED DISORDERS” (priority 2007, published 2010):

What was measured:
RA patients = conditions: 25 studies, 3907 RA patients; cited from earlier work
patients with active RA = assay: ASPIRE trial: joint damage progression (modified Sharp/van der Heijde score) baseline to week 54; assay type: in vivo, human
Experimental: Details on the patient population and study protocol on which we have tested our model have been presented previously (StClair et al. Arthritis Rheum 2004; 50:3432-3443). […] In addition, patients had >=10 swollen joints (66 joint count), >=12 tender joints (68 joint count), and >=1 of the following: rheumatoid factor (RF) positivity, radiographic erosions of the hands or feet, or serum C-reactive protein (CRP) level >=2.0 mg/dl.
The institutional review boards at participating sites approved the study protocol. All patients provided written informed consent. Patients were randomized in a 4:5:5 ratio to receive placebo, infliximab 3 mg/kg, or infliximab 6 mg/kg at weeks 0, 2, and 6, and then every 8 weeks through week 46. All patients were treated with oral MTX starting at 7.5 mg/week at week 0; MTX doses were increased by 2.5 mg every 1-2 weeks to reach 15 mg/week by week 4 and 20 mg/week by week 8. MTX was administered to all patients through week 54. Patients also received folic acid >=5 mg/week.
The American College of Rheumatology core set variables (Felson A&R 1993), including numbers of tender and swollen joints, were documented at each visit. The 28 joint count (Prevoo A&R 1995) was used in the creation of our model as it is more appropriate and more frequently used in daily clinical practice as compared to the 66/68 count. The Westergren method (Koepke 1988) was used to determine erythrocyte sedimentation rate (ESR) at weeks 0, 6, 30, and 54; normal ESR levels were <=20 mm/hour for women and <=15 mm/hour for men. CRP levels (normal <0.8 mg/dl) were measured by nephelometry (Stites 1997) at screening and each visit thereafter. (If possible RF testing should be specified as different IG's tested for have different correlation with radiological progression. Radiographs of the hands and feet were obtained within 4 weeks of receiving the first dose of the study drug, at weeks 30 and 54, and upon use of a protocol-prohibited medication or study termination, as applicable. Joint damage was assessed by change in the modified Sharp/van der Heijde score (SHS) (vander Heijde Lancet 1989) from baseline to week 54.
Of the 1,049 patients enrolled in the ASPIRE trial, 1,004 were prospectively identified as eligible for inclusion in the efficacy analyses prior to unblinding (StClair A&R 2004). […] Summary statistics of median, mean, and interquartile ranges are presented for continuous variables. Spearman correlation analyses were performed to evaluate the association between baseline covariates and changes in radiographic scores. Tests for statistical significance were performed using analysis of variance on van der Waerden normal scores. For categorical response parameters, treatment group comparisons were made using the chi-square test. […]

Row | Molecule | change in erosion scores versus placebo (RA patients) | other results
1 | Cc1oncc1C(=O)Nc1ccc(C(F)(F)F)cc1 [leflunomide] | statistically better than placebo | 
2 | interleukin 1 receptor antagonist: interleukin 1 receptor antagonist | statistically better than placebo | 
3 | O=C(O)c1cc(/N=N/c2ccc(S(=O)(=O)Nc3ccccn3)cc2)ccc1O [SSZ, sulphasalazine] | statistically better than placebo | 
4 | CC(=O)OC[C@H]1O[C@@H]([S-])[C@H](OC(C)=O)[C@@H](OC(C)=O)[C@@H]1OC(C)=O.CCP(CC)CC.[Au+] [auranofin] | statistically better than placebo | 
5 | CN(Cc1cnc2nc(N)nc(N)c2n1)c1ccc(C(=O)N[C@@H](CCC(=O)O)C(=O)O)cc1 [MTX, methotrexate] | statistically better than placebo | change in the SHS from baseline to week 54 (mean+/−SD) (patients with active RA; MTX alone): 3.7+/−9.6; patients showing an increase in radiographic score (patients with active RA; baseline to week 54): 61%; patients showing an increase of radiographic score of at least 5 SHS units (patients with active RA; baseline to week 54): 23%; patients with SHS of 0 at baseline who did not progress (patients with active RA; baseline to week 54): 63%
6 | infliximab | statistically better than placebo | rank versus other agents in preventing radiological progression (RA patients): superior to the last five agents
